Laboratory results taken from ChEMBL document CHEMBL1146419, “Antimicrobial and cytotoxic phenolic glycoside esters from the New Zealand tree Toronia toru” (J Nat Prod, 1997).
Converted amounts (≈) assume the structure as drawn.

Tests used:
[1] = test system: Bacillus subtilis; test: Antimicrobial activity against Bacillus subtilis at 30 ug/disk; assay type: functional; conditions: read-out: IZ
[2] = test system: Trichophyton mentagrophytes; test: Antimicrobial activity against Trichophyton mentagrophytes at 30 ug/disk; assay type: functional; conditions: read-out: IZ
[3] = test system: Escherichia coli; test: Antimicrobial activity against Escherichia coli at 30 ug/disk; assay type: functional; conditions: read-out: IZ
[4] = Cytotoxicity against african green monkey BSC1 cells at 15 ug/disk; assay type: cell-based; conditions: chlorocebus aethiops, bsc-1
[5] = test system: Bacillus subtilis; test: Antimicrobial activity against Bacillus subtilis at 60 ug/disk; assay type: functional; conditions: read-out: IZ
[6] = Cytotoxicity against african green monkey BSC1 cells at 30 ug/disk; assay type: cell-based; conditions: chlorocebus aethiops, bsc-1
[7] = test system: Escherichia coli; test: Antimicrobial activity against Escherichia coli at 120 ug/disk; assay type: functional; conditions: read-out: IZ
[8] = test system: P388; test: Cytotoxicity against mouse P388 cells; assay type: functional, cell-based
[9] = test system: Bacillus subtilis; test: Antimicrobial activity against Bacillus subtilis at 120 ug/disk; assay type: functional; conditions: read-out: IZ
[10] = test system: Trichophyton mentagrophytes; test: Antimicrobial activity against Trichophyton mentagrophytes at 60 ug/disk; assay type: functional; conditions: read-out: IZ
[11] = test system: Pseudomonas aeruginosa; test: Antimicrobial activity against Pseudomonas aeruginosa at 30 ug/disk; assay type: functional; conditions: read-out: IZ
[12] = Cytotoxicity against african green monkey BSC1 cells at 60 ug/disk; assay type: cell-based; conditions: chlorocebus aethiops, bsc-1
[13] = test system: Escherichia coli; test: Antimicrobial activity against Escherichia coli at 60 ug/disk; assay type: functional; conditions: read-out: IZ
[14] = test system: Pseudomonas aeruginosa; test: Antimicrobial activity against Pseudomonas aeruginosa at 60 ug/disk; assay type: functional; conditions: read-out: IZ
[15] = Cytotoxicity against african green monkey BSC1 cells at 120 ug/disk; assay type: cell-based; conditions: chlorocebus aethiops, bsc-1
[16] = test system: Trichophyton mentagrophytes; test: Antimicrobial activity against Trichophyton mentagrophytes at 120 ug/disk; assay type: functional; conditions: read-out: IZ
[17] = test system: Pseudomonas aeruginosa; test: Antimicrobial activity against Pseudomonas aeruginosa at 120 ug/disk; assay type: functional; conditions: read-out: IZ
[18] = test system: Bacillus subtilis; test: Antimicrobial activity against Bacillus subtilis at 15 ug/disk; assay type: functional; conditions: read-out: IZ
[19] = test system: Pseudomonas aeruginosa; test: Antimicrobial activity against Pseudomonas aeruginosa at 15 ug/disk; assay type: functional; conditions: read-out: IZ
[20] = test system: Trichophyton mentagrophytes; test: Antimicrobial activity against Trichophyton mentagrophytes at 15 ug/disk; assay type: functional; conditions: read-out: IZ
[21] = test system: Escherichia coli; test: Antimicrobial activity against Escherichia coli at 15 ug/disk; assay type: functional; conditions: read-out: IZ

| Compound | zone of inhibition at 30 µg/disc [1] [mm] | zone of inhibition at 30 µg/disc [2] [mm] | zone of inhibition at 30 µg/disc [3] [mm] | Activity [4] [%] | zone of inhibition at 60 µg/disc [5] [mm] | Activity [6] [%] | zone of inhibition at 120 µg/disc [7] [mm] | IC50 [8] [mg/L] | zone of inhibition at 120 µg/disc [9] [mm] | zone of inhibition at 60 µg/disc [10] [mm] | zone of inhibition at 30 µg/disc [11] [mm] | Activity [12] [%] | zone of inhibition at 60 µg/disc [13] [mm] | zone of inhibition at 60 µg/disc [14] [mm] | Activity [15] [%] | zone of inhibition at 120 µg/disc [16] [mm] | zone of inhibition at 120 µg/disc [17] [mm] | other results |
| --- | --- | --- | --- | --- | --- | --- | --- | --- | --- | --- | --- | --- | --- | --- | --- | --- | --- | --- |
| C=C(CCO)C(=O)OC[C@H]1O[C@@H](Oc2ccc(O)cc2)[C@H](O)[C@@H](O)[C@@H]1O | 0 | 0 | 0 | 50 | 0 | 100 | 0 | > 25 | 0 | 0 | 0 | 100 | 0 | 0 | 100 | 0 | 0 | – |
| C=C(C(=O)OC[C@H]1O[C@@H](Oc2ccc(O)cc2)[C@H](O)[C@@H](O)[C@@H]1O)[C@@H](O)CO | 0 | 0 | 0 | – | 1 | 50 | 4 | 3 (≈ 7.76 µM) | 5 | 0 | 0 | 100 | 2 | 1 | 100 | 5 | 3 | – |
| OC[C@H]1O[C@@H](Oc2ccc(O)cc2)[C@H](O)[C@@H](O)[C@@H]1O [ARBUTIN] | – | – | – | – | – | – | 0 | > 25 | 0 | – | – | – | – | – | 50 | 0 | 0 | – |
| Oc1ccc(O)cc1 [HYDROQUINONE] | 3 | 0 | 0 | – | 4 | 75 | 5 | 3 (≈ 27.2 µM) | 9 | 0 | 2 | 100 | 0 | 3 | 100 | 10 | 3 | – |
| C=C1CCOC1=O [TULIPALINE A] | 0 | 0 | 0 | 100 | 0 | 100 | 5 | 0.8 (≈ 8.15 µM) | 10 | 0 | 0 | 100 | 0 | 0 | 100 | 8 | 4 | zone of inhibition at 15 µg/disc [18]: 0 mm; zone of inhibition at 15 µg/disc [19]: 0 mm; zone of inhibition at 15 µg/disc [20]: 0 mm; zone of inhibition at 15 µg/disc [21]: 0 mm |
